This note sets out measurements from patent US10597366B2, “Aryl ethers and uses thereof” (Peloton Therapeutics, Inc., priority 2013, dated 2020).

Each structure is given as a SMILES string. pEC50: −log10 of the molar value.

The first assay deals with 786-O-Hif-Luc cells (luciferase gene driven by multiple HIF responsive elements). The assay is described as follows: Luciferase Assay. Conditions: 24 h, 786-O-Hif-Luc cells, about 24 hours; read-out: Mean Luciferease EC50. The class given is cell-based. Here is the method: A pool of infected cells were then selected against 2 μg/mL of puromycin (P8833, Sigma) for 10 days followed by limited dilution to select single clones.
Each concentration was tested in triplicate. After about 24 hours, luciferase activity was determined using ONE-Glo Luciferase Assay Reagent (E6110, Promega) following the manufacturer's recommended procedure. EC50 were calculated by using Dotmatics software.
As for `N#CN=S(=O)(CF)c1ccc(Oc2cc(F)cc(C#N)c2)c2c1[C@H](O)C(F)(F)C2` (single isomer, unassigned) [Compound 285], the pEC50 (as a rule, the negative decadic logarithm of the EC50, by convention in mol/L) is 7.00. On to `COC(=O)/C=C/c1c(S(=O)(=O)C(F)(F)F)ccc(Oc2cc(F)cc(C#N)c2)c1C` [Compound 147, Methyl (E)-3-[3-(3-cyano-5-fluoro-phenoxy)-2-methyl-6-(trifluoromethylsulfonyl)phenyl]prop-2-enoate], for which the pEC50 is 5.12. Turning to `O=C1c2c(S(=O)(=O)C(F)F)ccc(Oc3cncc(Cl)c3)c2CC1(F)F` [Compound 182, 4-((5-Chloropyridin-3-yl)oxy)-7-((difluoromethyl)sulfonyl)-2,2-difluoro-2,3-dihydro-1H-inden-1-one], the pEC50 is 5.40. For the molecule `CS(=O)(=O)c1ccc(Oc2cc(F)cc(C#N)c2)c2c1[C@H](O)[C@H](F)[C@H]2F` [Compound 294, 3-[(1S,2S,3S)-2,3-difluoro-1-hydroxy-7-methylsulfonyl-indan-4-yl]oxy-5-fluoro-benzonitrile], the negative-log EC50 (pEC50) was 6.00. As for `O=S(=O)(c1ccc(Oc2cc(F)cc(Cl)c2)c(Br)c1C=NO)C(F)(F)F` [Compound 107, 2-Bromo-3-(3-chloro-5-fluorophenoxy)-6-((trifluoromethyl)sulfonyl)benzaldehyde oxime], the pEC50 is 6.28. The same measure, in the same setting: the result for `C[C@@]1(F)Cc2c(Oc3cc(F)cc(C#N)c3)ccc(S(C)(=O)=O)c2[C@@H]1O` [Compound 300, 3-fluoro-5-(((1S,2R)-2-fluoro-1-hydroxy-2-methyl-7-(methylsulfonyl)-2,3-dihydro-1H-inden-4-yl)oxy)benzonitrile] reads 5.55; that for `O=S(=O)(c1ccc(Oc2cncc(F)c2)c2c1[C@H](O)CC2)C(F)F` [Compound 5, (R)-7-((difluoromethyl)sulfonyl)-4-((5-fluoropyridin-3-yl)oxy)-2,3-dihydro-1H-inden-1-ol], 6.38; that for `O=S(=O)(c1ccc(Oc2cc(F)cc(F)c2)c(Cl)c1CO)C(F)F` [Compound 168, (2-Chloro-6-((difluoromethyl)sulfonyl)-3-(3,5-difluorophenoxy)phenyl)methanol], 6.51. With `CS(=O)(=O)c1ccc(Oc2cc(F)cc(C#N)c2)c2c1[C@H](O)C(F)(F)[C@H]2F` [Compound 293, 3-fluoro-5-[(1S,3S)-2,2,3-trifluoro-1-hydroxy-7-methylsulfonyl-indan-4-yl]oxy-benzonitrile], the pEC50 was 6.11. On the same count and under the same terms, the result for `Cc1cc(Oc2ccc(S(=O)(=O)C(F)F)c3c2CC(F)(F)[C@H]3O)ccc1F` [Compound 198, (S)-7-((Difluoromethyl)sulfonyl)-2,2-difluoro-4-(4-fluoro-3-methylphenoxy)-2,3-dihydro-1H-inden-1-ol] reads 6.54; that for `Cc1cc(S(=O)(=O)C(F)F)ccc1Oc1cc(F)cc(C#N)c1` [Compound 136, 3-[4-(Difluoromethylsulfonyl)-2-methyl-phenoxy]-5-fluoro-benzonitrile], 5.62; that for `N#Cc1cc(F)cc(Oc2ccc(S(N)(=O)=O)c3c2C[C@@H](F)[C@H]3O)c1` [Compound 334, (2R,3S)-7-(3-cyano-5-fluoro-phenoxy)-2-fluoro-3-hydroxy-indane-4-sulfonamide], 6.66. On the same count and under the same terms, to `N#Cc1cc(F)cc(Oc2ccc(S(=O)(=O)CF)c3c2CC[C@H]3O)c1` [Compound 62, (R)-3-Fluoro-5-((7-((fluoromethyl)sulfonyl)-1-hydroxy-2,3-dihydro-1H-inden-4-yl)oxy)benzonitrile] belongs 6.74; to `N#Cc1cc(F)cc(Oc2ccc(S(=O)(=O)C(F)(F)F)cc2Br)c1` [Compound 118, 3-(2-Bromo-4-((trifluoromethyl)sulfonyl)phenoxy)-5-fluorobenzonitrile], 5.82. As to `CS(=O)(=O)c1ccc(Oc2cc(F)cc(Cl)c2)c2c1[C@H](O)C(F)(F)C2` [Compound 160, (1S)-4-(3-Chloro-5-fluoro-phenoxy)-2,2-difluoro-7-methylsulfonyl-indan-1-ol], the pEC50 is 8.00.

Turning to `O=S(=O)(c1ccc(Oc2cc(F)cc(Cl)c2)c(Cl)c1CNCCF)C(F)(F)F` [Compound 114, N-(2-Chloro-3-(3-chloro-5-fluorophenoxy)-6-((trifluoromethyl)sulfonyl)benzyl)-2-fluoroethan-1-amine], the pEC50 is 5.05.

`N#Cc1cncc(Oc2ccc(S(=O)(=O)C(F)(F)F)c3c2CCC3O)c1` (centres unmarked) [Compound 220, 5-((1-Hydroxy-7-((trifluoromethyl)sulfonyl)-2,3-dihydro-1H-inden-4-yl)oxy)nicotinonitrile]: the negative-log EC50 (pEC50) was 5.68.

On to `N#Cc1cncc(Oc2ccc(S(N)(=O)=O)c3c2CC(F)(F)[C@H]3O)c1` [Compound 253, (S)-7-((5-Cyanopyridin-3-yl)oxy)-2,2-difluoro-3-hydroxy-2,3-dihydro-1H-indene-4-sulfonamide], for which the pEC50 was 5.97.

Take `C[C@@H]1Cc2c(Oc3cc(F)cc(C#N)c3)ccc(S(C)(=O)=O)c2[C@@H]1O` [Compound 301, 3-fluoro-5-(((1R,2R)-1-hydroxy-2-methyl-7-(methylsulfonyl)-2,3-dihydro-1H-inden-4-yl)oxy)benzonitrile]: the pEC50 was 5.68. On the same count and under the same terms, the result for `O=S(=O)(c1ccc(Oc2c(F)ccc3[nH]ncc23)c2c1[C@H](O)C(F)(F)C2)C(F)(F)F` [Compound 264, (S)-2,2-Difluoro-4-((5-fluoro-1H-indazol-4-yl)oxy)-7-((trifluoromethyl)sulfonyl)-2,3-dihydro-1H-inden-1-ol] reads 5.56; that for `Cc1cc(S(=O)(=O)C(F)F)ccc1Oc1cc(F)cc(Cl)c1` [Compound 135, 1-(3-Chloro-5-fluoro-phenoxy)-4-(difluoromethylsulfonyl)-2-methyl-benzene], 5.27. Take `O=[N+]([O-])c1ccc(Oc2cc(F)cc(Cl)c2)c2c1C(O)CC2` (centres unmarked) [Compound 255, 4-(3-Chloro-5-fluorophenoxy)-7-nitro-2,3-dihydro-1H-inden-1-ol]: the pEC50 was 5.86. For `O=S(=O)(c1ccc(Oc2ccc(F)c(Cl)c2)c2c1[C@H](O)C(F)(F)C2)C(F)F` [Compound 26, (S)-4-(3-Chloro-4-fluorophenoxy)-7-((difluoromethyl)sulfonyl)-2,2-difluoro-2,3-dihydro-1H-inden-1-ol], the pEC50 was 7.17. With `CS(=O)(=O)c1ccc(Oc2cc(F)cc(Cl)c2)c(C(F)F)c1CO` [Compound 54, (3-(3-Chloro-5-fluorophenoxy)-2-(difluoromethyl)-6-(methylsulfonyl)phenyl)methanol], the negative logarithm of the EC50 (pEC50) was 6.46. Still for that read-out and setting: the result for `N#Cc1c(Oc2cc(F)cc(Cl)c2)ccc(S(=O)(=O)C(F)F)c1CO` [Compound 35, 6-(3-Chloro-5-fluorophenoxy)-3-((difluoromethyl)sulfonyl)-2-(hydroxymethyl)benzonitrile] reads < 4.70. As for `COc1cc(F)cc(Oc2ccc(S(=O)(=O)C(F)F)c3c2CC[C@H]3O)c1` [Compound 6, (R)-7-((difluoromethyl)sulfonyl)-4-(3-fluoro-5-methoxyphenoxy)-2,3-dihydro-1H-inden-1-ol], the pEC50 is 7.12. On to `CS(=O)(=O)c1ccc(Oc2cc(F)cc(C#N)c2)c2c1C(=O)C(F)(Cl)C2` (centres unmarked) [Compound 269, 3-((2-chloro-2-fluoro-7-(methylsulfonyl)-1-oxo-2,3-dihydro-1H-inden-4-yl)oxy)-5-fluorobenzonitrile], for which the pEC50 was 4.71. The same measure, in the same setting: to `N#Cc1cc(F)cc(Oc2ccc(S(=O)(=O)C(F)F)c3c2CC(F)(F)[C@H]3N)c1` [Compound 207, (S)-3-((1-Amino-7-((difluoromethyl)sulfonyl)-2,2-difluoro-2,3-dihydro-1H-inden-4-yl)oxy)-5-fluorobenzonitrile] belongs 6.08.

For `CC(=O)c1c(S(=O)(=O)C(F)(F)F)ccc(Oc2cc(F)cc(Cl)c2)c1Br` [Compound 104, 1-(2-Bromo-3-(3-chloro-5-fluorophenoxy)-6-((trifluoromethyl)sulfonyl)phenyl)ethan-1-one], the pEC50 is 4.92. On the same count and under the same terms, to `N#Cc1cc(F)cc(Oc2ccc(S(=O)(=O)C(F)F)c3c2CC(F)(F)C3O)c1` (centres unmarked) [Compound 11, 3-[7-(difluoromethylsulfonyl)-2,2-difluoro-1-hydroxy-indan-4-yl]oxy-5-fluoro-benzonitrile] belongs 7.80; to `CS(=O)(=O)c1ccc(Oc2cc(F)cc(C#N)c2)c2c1[C@H](O)[C@H](F)[C@@H]2O` [Compound 296, 3-fluoro-5-[(1S,2R,3R)-2-fluoro-1,3-dihydroxy-7-methylsulfonyl-indan-4-yl]oxy-benzonitrile], 5.89.

The same assay, now with this note: 24 h, read-out: Mean Luciferease EC50.
With `N#Cc1cncc(Oc2ccc(S(=O)(=O)C(F)(F)F)c3c2CC(F)(F)[C@H]3O)c1` [Compound 235, (S)-5-((2,2-Difluoro-1-hydroxy-7-((trifluoromethyl)sulfonyl)-2,3-dihydro-1H-inden-4-yl)oxy)nicotinonitrile], the pEC50 is 7.82. Still for that read-out and setting: the result for `CS(=O)(=O)c1ccc(Oc2cc(F)cc(C#N)c2)c2c1C(O)C(F)C2` (centres unmarked) [Compound 232, 3-Fluoro-5-((2-fluoro-1-hydroxy-7-(methylsulfonyl)-2,3-dihydro-1H-inden-4-yl)oxy)benzonitrile] reads 7.46.

For the molecule `CNS(=O)(=O)c1ccc(Oc2cc(F)cc(F)c2)c2c1[C@H](O)C(F)(F)C2` [Compound 251, (S)-7-(3,5-Difluorophenoxy)-2,2-difluoro-3-hydroxy-N-methyl-2,3-dihydro-1H-indene-4-sulfonamide], the pEC50 was 7.28. On to `CCS(=O)(=O)c1ccc(Oc2cc(F)cc(C#N)c2)c2c1[C@H](O)C(F)(F)C2` [Compound 206, (S)-3-((7-(Ethylsulfonyl)-2,2-difluoro-1-hydroxy-2,3-dihydro-1H-inden-4-yl)oxy)-5-fluorobenzonitrile], for which the pEC50 was 7.21.
